In PMC7518156 (PeerJ, 2020):
Like-named read-outs stand apart in the source and are kept apart here.

Assay: Pharmacokinetics of ERL and GEF in Wistar rats after four weeks consumption of water or flavoured water (plasma, UPLC-MS/MS, non-compartmental analysis)
Assay type: in vivo
Settings: male, Wistar, rat, plasma, 20 mg/kg
Procedure: Fifty healthy male Wistar rats weighing 250 ± 30 g were obtained from the animal house, College of Pharmacy, King Saud University, Riyadh, Saudi Arabia. Rats were randomly divided into ten cages (n = 5). All individualized ventilated cages (IVC) type IV used in this study were of 20″L × 11″W × 9″ in dimension capable of hosting 4–5 rats. Cages density, bedding, and sanitation frequency was similar in all cages. Cages were housed at room temperature (25 °C) and at an average relative humidity of 50%. Daily observation of all rats was required to ensure that all animals maintained good health. All animal experiments strictly followed the guidelines of the Ethical Committee for Performing Studies on Animals, King Saud University, Riyadh, Saudi Arabia, protocol number KSU-SE-19-13.
Four types of FW, (Aquafina®, a product of Pepsi-Cola®, Saudi Industrial Projects Company, Jeddah, Saudi Arabia) with different flavours, specifically berry (group II), peach (group III), lime (group IV), and pineapple FW (group V) were used. Other components found in FW used in this study include water, preservatives (sodium phosphate, potassium sorbet, sodium benzoate), acidifiers (citric acid, maleic acid), sweeteners (aspartame, potassium acesulfame, allose), acidity regulator (sodium citrate), and antioxidant agent (calcium disodium EDTA). […] The parallel design was used in this study to avoid animals’ physiological changes that could occur in the cross-over design, possibly affecting PK profiles of drug substances. All animals involved in the study were deprived from food, but not water/FW, for at least 12 h before drug administration. […] Drugs were administered to the rats between 7:00 am and 8:00 am. Rats were separately weighed from day one of water/FW consumption prior to drug administration for accurate dose calculation (Fig. S1). Blood samples (0.3 mL) were collected from each rat immediately prior to dosing (0 time) and at predetermined time points (0.5, 1, 2, 3, 5, 24, and 48 h) post drug administration. Blood samples were withdrawn and processed as described previously ([Maher et al., 2017]; [Maher, Alzoman & Shehata, 2016]; [Maher, Alzoman & Shehata, 2018]). Specifically, blood samples were withdrawn from the retro-orbital sinus into a series of heparinized tubes. Plasma was separated from collected blood samples by centrifugation at 4,500 rpm for 30 min where the centrifuge was maintained at 4 °C, and then stored at −20 °C until the day of analysis. […] A mixture of acetonitrile: water (80: 20, v/v), with 0.1% formic acid was used as a mobile phase at a flow rate of 0.2 mL/min ([Maher, Alzoman & Shehata, 2016]).
Cmax and tmax were obtained from the corresponding plasma concentration–time curve (Figs. 1A and 1B). […] The area under the plasma concentration–time curve from time 0 to the last sampling time t, 48 h (AUC0–t) was calculated using the trapezoidal rule. […] AUC0–∞ was also derived by summing up AUC0–t andthe area obtained by extrapolation from time t to ∞. The latter area was calculated from the division of the last measured concentration (Clast) by λz.
Results were presented as mean ± SD. PK parameters of all treated groups following the consumption of FW were compared with control (rats having free access to water), using one-way ANOVA and Bonferroni’s multiple comparisons test. Statistical significance was obtained with p-values ≤ 0.05.

[1] = oral, PKSolver sheet, dose 20 mg/kg, +Berry, read-out: Conc
[2] = oral, PKSolver sheet, dose 20 mg/kg, +Lime, read-out: Conc
[3] = oral, PKSolver sheet, dose 20 mg/kg, +Peach, read-out: Conc
[4] = oral, PKSolver sheet, dose 20 mg/kg, +Pineapple, read-out: Conc
[5] = oral, PKSolver sheet, dose 20 mg/kg, drug alone (water), read-out: Conc
[6] = po, rats, 20 mg/kg oral, +Berry FW, average, read-out: Conc*10 (ng/mL plasma)
[7] = po, rats, 20 mg/kg oral, +Lime FW, average, read-out: Conc*10 (ng/mL plasma)
[8] = po, rats, 20 mg/kg oral, +Peach FW, average, read-out: Conc*10 (ng/mL plasma)
[9] = po, rats, 20 mg/kg oral, +Pineapple FW, average, read-out: Conc*10 (ng/mL plasma)

Compound `C#Cc1cccc(Nc2ncnc3cc(OCCOC)c(OCCOC)cc23)c1` [ERL, Erlotinib] has a concentration at 0 h [1] of 6.83 ng/mL, a concentration at 0.5 h [1] of 46.3 ng/mL and a concentration at 1 h [1] of 76.7 ng/mL. It also gave a concentration at 2 h [1] of 92.4 ng/mL, a concentration at 3 h [1] of 110 ng/mL and a concentration at 5 h [1] of 45.6 ng/mL. The concentration at 24 h [1] was 11.9 ng/mL, the concentration at 48 h [1] was 8.18 ng/mL and the concentration at 0 h [2] was 19.8 ng/mL. The concentration at 0.5 h [2] was 164 ng/mL, the concentration at 1 h [2] was 103 ng/mL and the concentration at 2 h [2] was 73.3 ng/mL. The concentration at 3 h [2] was 57.6 ng/mL, the concentration at 5 h [2] was 42.2 ng/mL and the concentration at 24 h [2] was 32.1 ng/mL. It also gave a concentration at 48 h [2] of 25.1 ng/mL, a concentration at 0 h [3] of 5.49 ng/mL and a concentration at 0.5 h [3] of 67.8 ng/mL. It also gave a concentration at 1 h [3] of 81.7 ng/mL, a concentration at 2 h [3] of 111 ng/mL and a concentration at 3 h [3] of 43.2 ng/mL. For the same compound, the concentration at 5 h [3] was 18.2 ng/mL, the concentration at 24 h [3] was 11.4 ng/mL and the concentration at 48 h [3] was 9.85 ng/mL. It also gave a concentration at 0 h [4] of 10.6 ng/mL, a concentration at 0.5 h [4] of 22.3 ng/mL and a concentration at 1 h [4] of 36.6 ng/mL. The concentration at 2 h [4] was 120 ng/mL, the concentration at 3 h [4] was 45.3 ng/mL and the concentration at 5 h [4] was 20.9 ng/mL. It also gave a concentration at 24 h [4] of 15.8 ng/mL, a concentration at 48 h [4] of 14 ng/mL and a concentration at 0 h [5] of 9.48 ng/mL. For the same compound, the concentration at 0.5 h [5] was 44.5 ng/mL, the concentration at 1 h [5] was 105 ng/mL and the concentration at 2 h [5] was 48.2 ng/mL. It also gave a concentration at 3 h [5] of 29.7 ng/mL, a concentration at 5 h [5] of 23.2 ng/mL and a concentration at 24 h [5] of 12.3 ng/mL. For the same compound, the concentration at 48 h [5] was 9.77 ng/mL, the concentration at 0 h [6] was 6.83 ng/mL and the concentration at 0.5 h [6] was 46.3 ng/mL. The concentration at 1 h [6] was 76.7 ng/mL, the concentration at 2 h [6] was 92.4 ng/mL and the concentration at 3 h [6] was 110 ng/mL. It also gave a concentration at 5 h [6] of 45.6 ng/mL, a concentration at 24 h [6] of 11.9 ng/mL and a concentration at 48 h [6] of 8.18 ng/mL. The concentration at 0 h [7] was 19.8 ng/mL, the concentration at 0.5 h [7] was 164 ng/mL and the concentration at 1 h [7] was 103 ng/mL. The concentration at 2 h [7] was 73.3 ng/mL, the concentration at 3 h [7] was 57.6 ng/mL and the concentration at 5 h [7] was 42.2 ng/mL. The concentration at 24 h [7] was 32.1 ng/mL, the concentration at 48 h [7] was 25.1 ng/mL and the concentration at 0 h [8] was 5.49 ng/mL. It also gave a concentration at 0.5 h [8] of 67.8 ng/mL, a concentration at 1 h [8] of 81.7 ng/mL and a concentration at 2 h [8] of 111 ng/mL. It also gave a concentration at 3 h [8] of 43.2 ng/mL, a concentration at 5 h [8] of 18.2 ng/mL and a concentration at 24 h [8] of 11.4 ng/mL. For the same compound, the concentration at 48 h [8] was 9.85 ng/mL, the concentration at 0 h [9] was 10.6 ng/mL and the concentration at 0.5 h [9] was 22.3 ng/mL. The concentration at 1 h [9] was 36.6 ng/mL, the concentration at 2 h [9] was 120 ng/mL and the concentration at 3 h [9] was 45.3 ng/mL.
